From patent publication EP4603105A1, “PHARMACEUTICAL COMPOSITION CONTAINING CYCLIC COMPOUND HAVING SELECTIVE KRAS INHIBITORY EFFECT AGAINST HRAS AND NRAS” (CHUGAI SEIYAKU KABUSHIKI KAISHA, priority 2022, dated 2024)
Where a SMILES comes first, the peptide text is derived from it. Bridges are numbered along the chain shown (N, C = ends). [ ]: non-standard residue; d: D form. The star is where a group is joined. ξ: configuration not given here. hPhe(3-Cl-4-CF3) = N[C@@H](CCc1ccc(C(F)(F)F)c(Cl)c1)C(=O)O; NPrPhe(4-CF3) = CCCN[C@@H](Cc1ccc(C(F)(F)F)cc1)C(=O)O; NEtPhe(4-F) = CCN[C@@H](Cc1ccc(F)cc1)C(=O)O; NMeGly(cPent) = CN[C@H](C(=O)O)C1CCCC1; Pro(4,4-F2) = O=C(O)[C@@H]1CC(F)(F)CN1; NMeD = CN[C@@H](CC(=O)O)C(=O)O; NMeL = CN[C@@H](CC(C)C)C(=O)O; ξNMeD = CNC(CC(=O)O)C(=O)O; Morpholide = C1CN(*)CCO1; Ac5c = NC1(C(=O)O)CCCC1; Ac4c = NC1(C(=O)O)CCC1; ξP = O=C(O)C1CCCN1; NEtG = CCNCC(=O)O; Sar = CNCC(=O)O

Columns and labels:
[1] = system: human lung cancer strain NCI-H441; format: cell-based
Outline: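 Signal came from […] measured per well once the reagent was added. Beforehand, cells were cultured at 37°C and 5% carbon dioxide on a compound series serially diluted in dimethyl sulfoxide.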

[2] = target: GDP-bound NRAS wild-type protein (Homo sapiens, UniProt P01111); assay: Binding to NRAS by surface plasmon resonance (SPR), KD and KD ratio to KRAS
Outline: (§1)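 Measured at 30°C: SPR with GDP-loaded, E. coli-expressed biotin-Avi RAS captured (~100–300 RU), ascending 75 s compound injections, HBS pH 7.4 with GDP, MgCl2, 4% DMSO. KD from 1:1 fit.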

[3] = target: HRAS wild-type protein (Homo sapiens, UniProt P01112); assay: Binding to HRAS by surface plasmon resonance (SPR), KD and KD ratio to KRAS
Outline: as §1

[4] = ratio of KD for GDP-bound NRAS wild-type protein to KD for KRAS
[5] = ratio of KD for HRAS wild-type protein to KD for KRAS

Chain of GDP-bound NRAS wild-type protein (P01111 whole entry): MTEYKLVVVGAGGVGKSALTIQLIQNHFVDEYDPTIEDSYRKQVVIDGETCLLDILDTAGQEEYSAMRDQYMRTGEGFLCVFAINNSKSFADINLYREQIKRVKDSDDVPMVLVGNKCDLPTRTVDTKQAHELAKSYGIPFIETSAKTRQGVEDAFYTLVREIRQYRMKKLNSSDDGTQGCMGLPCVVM
Chain of HRAS wild-type protein (P01112 whole entry): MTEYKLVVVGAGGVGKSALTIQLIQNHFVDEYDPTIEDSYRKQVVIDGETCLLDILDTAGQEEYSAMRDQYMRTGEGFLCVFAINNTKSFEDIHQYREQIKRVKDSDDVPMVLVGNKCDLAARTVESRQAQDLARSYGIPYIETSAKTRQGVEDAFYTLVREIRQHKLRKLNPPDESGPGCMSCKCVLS

| IC50 [1] | SMILES | NRAS /KRAS [2, 4] | HRAS /KRAS [3, 5] | NRAS /KRAS ([2]; ratio of the KD value with respect to GDP-bound NRAS wild-type protein to the KD value with respect to KRAS) | HRAS /KRAS ([3]; ratio of the KD value with respect to HRAS wild-type protein to the KD value with respect to KRAS) | NRAS /KRAS ([2]; ratio of KD with respect to GDP-bound NRAS wild-type protein to KD with respect to KRAS) | HRAS /KRAS ([3]; ratio of KD with respect to HRAS wild-type protein to KD with respect to KRAS) |
| --- | --- | --- | --- | --- | --- | --- | --- |
| 18.3 nM | CCCN1C(=O)CN(C)C(=O)CN(C)C(=O)[C@H]([C@@H](C)CC)NC(=O)[C@H](CC(C)C)N(C)C(=O)C[C@@H](C(=O)N2CCOCC2)N(C)C(=O)[C@H](C2CCCC2)N(C)C(=O)C2(CCCC2)NC(=O)CN(CC)C(=O)[C@H](CCc2ccc(C(F)(F)F)c(Cl)c2)NC(=O)CN(C)C(=O)[C@@H]1Cc1ccc(C(F)(F)F)cc1 [PP0144] ([NMeL]I[Sar][Sar][NPrPhe(4-CF3)][Sar][hPhe(3-Cl-4-CF3)][NEtG][Ac5c][NMeGly(cPent)][NMeD]-Morpholide; lactam N-11) | B (a compound having 3 or more and less than 10 is denoted as B) | C (A compound having a KD ratio of 0.1 or more and less than 3 is denoted as C) | – | – | – | – |
| 14.9 nM | CC[C@H](C)[C@@H]1NC(=O)[C@H](C2CC2)N(C)C(=O)C[C@@H](C(=O)N(C)CC)N(C)C(=O)[C@H](C2CCCC2)N(C)C(=O)C2(CC(C)(C)C2)NC(=O)[C@@H]2C[C@H](C)CN2C(=O)[C@H](CCc2ccc(C(F)(F)F)c(OC)c2)NC(=O)CN(C)C(=O)[C@H](Cc2ccc(C(F)(F)F)cc2)N2CC/C=C\C[C@@H](C2=O)N(C)C(=O)CN(C)C1=O [PP2007] | – | – | AA (a compound having 20 or more is denoted as AA) | B (a compound having 3 or more and less than 10 is denoted as B) | – | – |
| 10.3 nM | CC[C@H](C)[C@@H]1NC(=O)[C@H](CC(C)C)N(C)C(=O)C[C@@H](C(=O)N2CCOCC2)N(C)C(=O)[C@H](C2CCCC2)N(C)C(=O)C2(CCCC2)NC(=O)[C@@H]2CCCN2C(=O)[C@H](CCc2ccc(C(F)(F)F)c(Cl)c2)NC(=O)CN(C)C(=O)[C@H](Cc2ccc(F)cc2)N(CC)C(=O)CN(C)C(=O)CN(C)C1=O [PP0213] ([NMeL]I[Sar][Sar][NEtPhe(4-F)][Sar][hPhe(3-Cl-4-CF3)]P[Ac5c][NMeGly(cPent)][NMeD]-Morpholide; lactam N-11) | C (A compound having a KD ratio of 0.1 or more and less than 3 is denoted as C) | C (A compound having a KD ratio of 0.1 or more and less than 3 is denoted as C) | – | – | – | – |
| 317 nM | CCCN1C(=O)CN(C)C(=O)CN(C)C(=O)[C@H]([C@@H](C)CC)NC(=O)[C@H](CC(C)C)N(C)C(=O)CC(C(=O)N2CCOCC2)N(C)C(=O)[C@H](C2CCCC2)N(C)C(=O)C2(CCCC2)NC(=O)[C@@H]2CCCN2C(=O)[C@H](CCc2ccc(C(F)(F)F)c(Cl)c2)NC(=O)C2CCCN2C(=O)[C@@H]1Cc1ccc(C(F)(F)F)cc1 (stereo partly drawn) [PP0149] ([NMeL]I[Sar][Sar][NPrPhe(4-CF3)][ξP][hPhe(3-Cl-4-CF3)]P[Ac5c][NMeGly(cPent)][ξNMeD]-Morpholide; lactam N-11) | C (A compound having a KD ratio of 0.1 or more and less than 3 is denoted as C) | B (a compound having 3 or more and less than 10 is denoted as B) | – | – | – | – |
| 4.7 nM | CCO[C@@H]1C[C@H]2C(=O)NC3(CCC3)C(=O)N(C)[C@@H](C3CCCC3)C(=O)N(C)[C@H](C(=O)N(C)CC)CC(=O)N(C)[C@@H](CC3CC3)C(=O)N[C@@H]([C@@H](C)CC)C(=O)N(C)CC(=O)N(C)[C@H]3C/C=C\CCN(C3=O)[C@@H](Cc3ccc(C(F)(F)F)cc3)C(=O)N(C)CC(=O)N[C@@H](CCc3cc(F)c(C(F)(F)F)c(F)c3)C(=O)N2C1 [PP1301] | – | – | – | – | A (a compound having 10 or more and less than 20 is denoted as A) | A (a compound having 10 or more and less than 20 is denoted as A) |
| 1.9 nM | CCCN1C(=O)CN(C)C(=O)CN(C)C(=O)[C@H]([C@@H](C)CC)NC(=O)[C@H](CC(C)C)N(C)C(=O)C[C@@H](C(=O)N2CCOCC2)N(C)C(=O)[C@H](C2CCCC2)N(C)C(=O)C2(CCC2)NC(=O)[C@@H]2CC(F)(F)CN2C(=O)[C@H](CCc2ccc(C(F)(F)F)c(Cl)c2)NC(=O)CN(C)C(=O)[C@@H]1Cc1ccc(C(F)(F)F)cc1 [PP0207] ([NMeL]I[Sar][Sar][NPrPhe(4-CF3)][Sar][hPhe(3-Cl-4-CF3)][Pro(4,4-F2)][Ac4c][NMeGly(cPent)][NMeD]-Morpholide; lactam N-11) | B (a compound having 3 or more and less than 10 is denoted as B) | C (A compound having a KD ratio of 0.1 or more and less than 3 is denoted as C) | – | – | – | – |

| SMILES | IC50 [1] | NRAS /KRAS [2, 4] | HRAS /KRAS [3, 5] | NRAS /KRAS ([2]; ratio of the KD value with respect to GDP-bound NRAS wild-type protein to the KD value with respect to KRAS) | HRAS /KRAS ([3]; ratio of the KD value with respect to HRAS wild-type protein to the KD value with respect to KRAS) | NRAS /KRAS ([2]; ratio of KD with respect to GDP-bound NRAS wild-type protein to KD with respect to KRAS) | HRAS /KRAS ([3]; ratio of KD with respect to HRAS wild-type protein to KD with respect to KRAS) |
| --- | --- | --- | --- | --- | --- | --- | --- |
| CCC[C@H]1C(=O)N[C@@H]([C@@H](C)CC)C(=O)N(C2CC2)CC(=O)N(C)[C@H]2C/C=C\CCN(C2=O)[C@@H](Cc2ccc(C(F)(F)F)cc2)C(=O)N(C)CC(=O)N[C@@H](CCc2ccc(C(F)(F)F)c(OC)c2)C(=O)N2C[C@H](OCC)C[C@H]2C(=O)N(C)C2(CCC2)C(=O)N(C)[C@@H](C2CCCC2)C(=O)N(C)[C@H](C(=O)N2CCCCC2)CC(=O)N1C [PP3095] | 33.7 nM | A (a compound having 10 or more and less than 20 is denoted as A) | A (a compound having 10 or more and less than 20 is denoted as A) | – | – | – | – |
